From patent publication US8158606B2, “β-L-2′-deoxynucleosides for the treatment of resistant HBV strains and combination therapies” (priority 2002, dated 2012)

Key:
[1] = test system: human peripheral blood mononuclear cells (PBMCs), bone marrow progenitor cells and numerous cell lines; test: Cytotoxicity of L-dC; format: cell-based, human and other non-human mammalian
Excerpt: Human DNA polymerases and mitochondrial function were not affected by L-dC in vitro. L-dC was non-cytotoxic to human peripheral blood mononuclear cells (PBMCs), bone marrow progenitor cells and numerous cell lines of human and other non-human mammalian origin.

[2] = Single-dose bioavailability of L-dC in the rat; conditions: Sprague-Dawley, plasma, 10 mg/kg
Experimental: The drug was detected and the concentration determined in plasma and urine using a reverse-phase HPLC technique. The data were analyzed by a non-modeling mathematical method and the AUCs derived by the linear trapezoidal rule.

Nc1ccn([C@@H]2CC(O)[C@H](CO)O2)c(=O)n1 (stereo partly drawn) [L-dC, 2′-Deoxy-β-L-cytidine]
cytotoxicity in words [1]: non-cytotoxic
bioavailability ([2]; oral): 15.4%
AUC(0-t) ([2]; po): 4.77 µM·h
Cmax ([2]; po): 1.5 µM
Tmax ([2]; po): 1 h
AUC(0-t) ([2]; female, iv): 30.1 µM·h
Cmax ([2]; female, iv): 91.1 µM
Tmax ([2]; female, iv): 0 h
Vd ([2]; female, iv): 2.53 L/kg
clearance ([2]; female, iv): 24 mL/min/kg
